Our source for the Papp values is patent US20230096766A1, “AMINO ACID HAVING FUNCTIONAL GROUP CAPABLE OF INTERMOLECULAR HYDROGEN BONDING, PEPTIDE COMPOUND CONTAINING SAME AND METHOD FOR PRODUCTION THEREOF” (Chugai Seiyaku Kabushiki Kaisha, priority 2018, published 2023).

*1 amine or outer side, *2 acyl side, *3 side chain or, on linkers, in order; H or OH if unused. Where a SMILES comes first, the peptide text is derived from it. Bridges are numbered along the chain shown (N, C = ends). [ ]: non-standard residue; d: D form. The star is where a group is joined. ξ: configuration not given here. NMeAbu(3,3-F2-piperidino) = CN[C@@H](CCN1CCCC(F)(F)C1)C(=O)O; dhPhe(4-CONHMe,3-OMe) = CNC(=O)c1ccc(CC[C@@H](N)C(=O)O)cc1OC; hPhe(3-OMe,4-CONHMe) = CNC(=O)c1ccc(CC[C@H](N)C(=O)O)cc1OC; Glu(NHSO2Me) = CS(=O)(=O)NC(=O)CC[C@H](N)C(=O)O; Phe(4-COOH) = N[C@@H](Cc1ccc(C(=O)O)cc1)C(=O)O; NMePhe(3-Cl) = CN[C@@H](Cc1cccc(Cl)c1)C(=O)O; Propyl(2,2-Me2,3-OH) = CC(C)(CO)C*; NMeF = CN[C@@H](Cc1ccccc1)C(=O)O; NMeGABA = CN(CCCC(=O)[*:2])[*:1]; NMeI = CC[C@H](C)[C@H](NC)C(=O)O; NMeL = CN[C@@H](CC(C)C)C(=O)O; Butyl(3R-OH) = C[C@@H](O)CC*; ξNMeF = CNC(Cc1ccccc1)C(=O)O; NMeV = CN[C@H](C(=O)O)C(C)C; NMeAbu = CC[C@H](NC)C(=O)O; Piperidide = C1CCN(*)CC1; Me2NCH2CH2 = CN(C)CC*; NBuGly = CCCCNCC(=O)O; ξV = CC(C)C(N)C(=O)O; N(OH)Me = CN(O)*; X3 = C[C@H](O)C*; Sar = CNCC(=O)O; tBu = CC(C)(C)*

One data set is described as follows: in vitro. The settings on record: human, Caco-2, Caco-2.
Broadly, the Papp is a coefficient for how fast a substance crosses the barrier. The low end stands for slow passage, the high end for fast passage. With `CCCCN1CC(=O)N(C)[C@@H](CC(C)C)C(=O)N[C@@H](CCC(=O)NS(C)(=O)=O)C(=O)N(C)[C@@H](Cc2cccc(Cl)c2)C(=O)N(C)[C@@H](C(C)C)C(=O)N[C@H](C(=O)N2CCCCC2)CC(=O)N[C@H](CC(C)C)C(=O)N(C)[C@@H](Cc2cccc(Cl)c2)C(=O)N[C@@H](CC(C)C)C(=O)N(C)[C@@H](CC(C)C)C(=O)N[C@@H]([C@@H](C)O)C1=O` [pd60] ([dL][NMePhe(3-Cl)]L[NMeL]T[NBuGly][NMeL][Glu(NHSO2Me)][NMePhe(3-Cl)][NMeV]D-Piperidide; lactam N-11), the Papp is 0.01 ×10⁻⁶ cm/s.
For the compound `CCCCN1CC(=O)N(C)[C@@H](C(C)C)C(=O)N[C@@H](CC(C)C)C(=O)N(C)[C@@H](Cc2ccccc2)C(=O)N(C)[C@@H](CCN2CCCC(F)(F)C2)C(=O)N[C@H](C(=O)N2CCCCC2)CC(=O)N[C@H](C)C(=O)N(C)[C@@H](Cc2ccccc2)C(=O)N[C@@H](CC(C)C)C(=O)N(C)[C@@H](CC(C)C)C(=O)N[C@@H]([C@@H](C)O)C1=O` [pd388] ([dA][NMeF]L[NMeL]T[NBuGly][NMeV]L[NMeF][NMeAbu(3,3-F2-piperidino)]D-Piperidide; lactam N-11), the Papp stood at 1.9 ×10⁻⁶ cm/s.
`CC(C)C[C@@H]1NC(=O)[C@H](CC(C)C)N(C)C(=O)CCCN(C)C(=O)C[C@@H](C(=O)N2CCCCC2)NC(=O)[C@H](CC(C)C)N(C)C(=O)[C@H](CC(C)C)N(C)C(=O)[C@H]([C@@H](C)O)NC(=O)[C@H](CC(C)C)N(C)C(=O)[C@H](COCCN(C)C)NC(=O)[C@H](Cc2ccccc2)N(C)C(=O)[C@H](Cc2ccccc2)N(C)C1=O` [pd54] ([NMeGABA][NMeL]L[NMeF][NMeF]S(Me2NCH2CH2)[NMeL]T[NMeL][NMeL]D-Piperidide; lactam N-11) came in with a Papp of 0.073 ×10⁻⁶ cm/s.

Staying with this data set, now noted: human, Caco-2, Caco-2 (cm/sec).
For `CC[C@H](C)[C@H]1C(=O)N[C@@H]([C@@H](C)O)C(=O)N(C)CC(=O)N(C)[C@@H](CC(C)C)C(=O)N[C@H](C(=O)N2CCCCC2)CC(=O)N(C)[C@@H](C(C)C)C(=O)N[C@@H](COC[C@H](C)O)C(=O)N(C)[C@@H](CC(C)C)C(=O)N(C)[C@@H](Cc2cccc(Cl)c2)C(=O)N[C@@H](CC(C)C)C(=O)N(C)[C@@H](Cc2ccccc2)C(=O)N1C` [AP69] ([NMeV]S(X3)[NMeL][NMePhe(3-Cl)]L[NMeF][NMeI]T[Sar][NMeL]D-Piperidide; lactam N-11), the Papp worked out at 0.7 ×10⁻⁶ cm/s.
`CC[C@H]1C(=O)N[C@@H](CC(C)C)C(=O)N(C)[C@@H](CC(C)C)C(=O)N(C)C(Cc2ccccc2)C(=O)N[C@@H](CCc2ccc(C(=O)NC)c(OC)c2)C(=O)N(C)[C@@H](CC(C)C)C(=O)N(C)[C@@H](CC(C)C)C(=O)N[C@@H]([C@@H](C)O)C(=O)N(C)CC(=O)N(C)[C@@H](CC(C)C)C(=O)N[C@H](C(=O)N2CCCCC2)CC(=O)N1C` (stereo partly drawn) [AP204] ([NMeAbu]L[NMeL][ξNMeF][hPhe(3-OMe,4-CONHMe)][NMeL][NMeL]T[Sar][NMeL]D-Piperidide; lactam N-11): the Papp stood at 1.6 ×10⁻⁶ cm/s.
In turn, `CC[C@H]1C(=O)N[C@H](CCc2ccc(C(=O)NC)c(OC)c2)C(=O)N(C)[C@@H](CC(C)C)C(=O)N(C)[C@@H](CC(C)C)C(=O)N[C@@H](C(C)C)C(=O)N(C)[C@@H](Cc2ccccc2)C(=O)N(C)[C@@H](CC(C)C)C(=O)N[C@@H]([C@@H](C)O)C(=O)N(C)CC(=O)N(C)[C@@H](CC(C)C)C(=O)N[C@H](C(=O)N2CCCCC2)CC(=O)N1C` [AP213] ([NMeAbu][dhPhe(4-CONHMe,3-OMe)][NMeL][NMeL]V[NMeF][NMeL]T[Sar][NMeL]D-Piperidide; lactam N-11) gave a Papp of 0.34 ×10⁻⁶ cm/s.
With `CCCCN1CC(=O)N(C)[C@@H](CC(C)C)C(=O)N[C@@H](COC(C)(C)C)C(=O)N(C)[C@@H](Cc2ccccc2)C(=O)N(C)[C@@H](CC(C)C)C(=O)N[C@H](C(=O)N2CCCCC2)CC(=O)N[C@H](C(C)C)C(=O)N(C)[C@@H](C(C)C)C(=O)N[C@@H](Cc2ccc(C(=O)N(C)O)cc2)C(=O)N(C)[C@@H](CC(C)C)C(=O)N[C@@H]([C@@H](C)O)C1=O` [AP248] ([dV][NMeV][Phe(4-COOH)](N(OH)Me)[NMeL]T[NBuGly][NMeL]S(tBu)[NMeF][NMeL]D-Piperidide; lactam N-11), the apparent permeability coefficient (Papp) stood at 0.24 ×10⁻⁶ cm/s.
In turn, `CC(C)C[C@@H]1NC(=O)[C@H](Cc2ccccc2)N(C)C(=O)[C@@H](C(C)C)NC(=O)C[C@@H](C(=O)N2CCCCC2)NC(=O)[C@H](CC(C)C)N(C)C(=O)[C@H](Cc2ccccc2)N(C)C(=O)[C@H](COCC(C)(C)CO)NC(=O)[C@H](CC(C)C)N(C)C(=O)CN(C)C(=O)[C@H]([C@@H](C)O)NC(=O)[C@H](CC(C)C)N(C)C1=O` [AP118] ([dV][NMeF]L[NMeL]T[Sar][NMeL]S(Propyl(2,2-Me2,3-OH))[NMeF][NMeL]D-Piperidide; lactam N-11) yielded a Papp of 1.8 ×10⁻⁶ cm/s.
On the same count and under the same terms, the same measure for `CC(C)C[C@H]1C(=O)NC(C(C)C)C(=O)N(C)[C@@H](Cc2ccccc2)C(=O)N(C)[C@@H](Cc2cccc(Cl)c2)C(=O)N[C@@H](COCC[C@@H](C)O)C(=O)N(C)[C@@H](CC(C)C)C(=O)N[C@@H]([C@@H](C)O)C(=O)N(C)[C@@H](CC(C)C)C(=O)N(C)[C@@H](CC(C)C)C(=O)N[C@H](C(=O)N2CCCCC2)CC(=O)N(C)CCCC(=O)N1C` (stereo partly drawn) [AP111] ([NMeGABA][NMeL][ξV][NMeF][NMePhe(3-Cl)]S(Butyl(3R-OH))[NMeL]T[NMeL][NMeL]D-Piperidide; lactam N-11): 0.13 ×10⁻⁶ cm/s.
